The values below come from ChEMBL document CHEMBL1138462 (J Med Chem, 2009).

By pKi is commonly meant the negative decadic logarithm of the Ki, by convention in mol/L. In general, bioavailability refers to the share of a dose that reaches the circulation, judged against a reference dose that is usually intravenous. For orientation: half-life means the time needed for the level to fall by half in the phase considered.

Data set [1] addresses T1, Cannabinoid receptor 1 (Homo sapiens, UniProt P21554). In kind it is functional, cell-based, CHO-K1.
Description: Antagonist activity at human CB1 receptor expressed in CHOK1 cells assessed as inhibition of CP-55940-induced response after 10 mins by GTPgamma[35S] binding assay
Data set [2] addresses Cannabinoid receptor 2 (Homo sapiens, UniProt P34972). The data set is described as follows: Binding affinity to CB2 receptor.
Data set [3] has as its target T1, Cannabinoid receptor 1. The data set is described as follows: Binding affinity to CB1 receptor.
For data set [4], the species on record is Rattus norvegicus. The data set is described as follows: Toxicity in Sprague-Dawley rat assessed as behavioral side effects and rapid respiration at concentration >=10 fold of plasma level. The note with it: in vivo. In kind it is organism-based.
For data set [5], the system named is Rattus norvegicus. The data set is described as follows: Antiobesity activity in fast-induced refeeding Sprague-Dawley rat model assessed as reduction in food intake at 3 mg/kg, po administered 30 mins prior to food intake measured every 10 mins for 2 hrs. In kind it is functional. Further details: scale not given: the % may be the effect or the level left.
Data set [6] has as its system Mus musculus. The data set is described as follows: Antiobesity activity in diet-induced obese mouse assessed as reduction in food intake at 3 mg/kg, po for 7 days. Further details: scale not given: the % may be the effect or the level left. The data set is classed as functional.
Data set [7] relates to Mus musculus. The data set is described as follows: Antiobesity activity in diet-induced obese mouse assessed as reduction in weight gain at 3 mg/kg, po for 7 days. In kind it is functional. Further details: scale not given: the % may be the effect or the level left.
Data set [8] concerns Rattus norvegicus. The data set is described as follows: Inhibition of CP-55940-induced catalepsy in rat at >=1 mg/kg, sc administered 15 mins before CP-55940 challenge measured after 90 mins.
Data set [9] has as its system Rattus norvegicus. The data set is described as follows: Inhibition of CP-55940-induced locomotor activity in rat at >=1 mg/kg, sc administered 15 mins before CP-55940 challenge measured after 25 mins.
Data set [10] relates to Rattus norvegicus. The data set is described as follows: Antiobesity activity in fast-induced refeeding Sprague-Dawley rat model assessed as reduction in food intake at 1 mg/kg, po administered 30 mins prior to food intake measured every 10 mins for 2 hrs. In kind it is functional. On the set-up: scale not given: the % may be the effect or the level left.
The subject of data set [11] is Rattus norvegicus. The data set is described as follows: Inhibition of CP-55940-induced hypothermia in rat at >=1 mg/kg, sc administered 15 mins before CP-55940 challenge measured after 65 mins.
The nature of data set [12]: Oral bioavailability in rat up to 50 mg/kg. The data set is classed as ADME, organism-based. The note with it: in vivo.
The nature of data set [13]: Volume of distribution at steady state in rat at 1 mg/kg, iv and 5 mg/kg, po. The data set is classed as ADME, organism-based. The note with it: in vivo, read-out: Vdss.
Data set [14] deals with Mus musculus. The data set is described as follows: Antiobesity activity in diet-induced obese mouse assessed as reduction in weight gain at 1 mg/kg, po for 7 days. In kind it is functional. On the set-up: scale not given: the % may be the effect or the level left.
The nature of data set [15]: Bioavailability in rat at 1 mg/kg, iv and 5 mg/kg, po. In kind it is ADME, organism-based. The note with it: in vivo.
Data set [16] relates to Mus musculus. The data set is described as follows: Antiobesity activity in diet-induced obese mouse assessed as reduction in food intake at 1 mg/kg, po for 7 days. Further details: scale not given: the % may be the effect or the level left. The data set is classed as functional.
For data set [17], the system named is Rattus norvegicus. The data set is described as follows: Inhibition of CP-55940-induced analgesia in rat at >=1 mg/kg, sc administered 15 mins before CP-55940 challenge measured after 45 mins by hot plate method.
Data set [18] is described as follows: Aqueous solubility of the compound. In kind it is physicochemical. The note with it: buffer.
Data set [19] concerns Mus musculus. The data set is described as follows: Inhibition of CP-55940-induced hypothermia in ICR mouse at 1 mg/kg, sc administered 15 mins before CP-55940 challenge measured after 65 mins. In kind it is functional, organism-based. Further details: dose 1 mg/kg.
Data set [20] in a line: Oral bioavailability in rat at 500 mg/kg. The data set is classed as ADME, organism-based. The note with it: in vivo.
The species named for data set [21] is Rattus norvegicus. The data set is described as follows: Anorectic activity in acute food intake rat model assessed as decrease in food intake. The data set is classed as functional, organism-based.
Data set [22] is described as follows: Solubility in sodium taurocholate/phosphatidyl choline salt medium. In kind it is physicochemical.
Data set [23] concerns Mus musculus. The data set is described as follows: Inhibition of CP-55940-induced locomotor activity in ICR mouse at 1 mg/kg, sc administered 15 mins before CP-55940 challenge measured after 25 mins. In kind it is functional, organism-based. Further details: dose 1 mg/kg.
In data set [24] the test system is Mus musculus. The data set is described as follows: Inhibition of CP-55940-induced catalepsy in ICR mouse at 1 mg/kg, sc administered 15 mins before CP-55940 challenge measured after 90 mins. In kind it is functional, organism-based. Further details: dose 1 mg/kg.
Data set [25] in a line: Half life in rat at 1 mg/kg, iv and 5 mg/kg, po. In kind it is ADME, organism-based. The note with it: in vivo.
The species entered for data set [26] is Rattus norvegicus. The data set is described as follows: Anorectic activity in acute food intake rat model assessed as increase in fat oxidation. The data set is classed as functional, organism-based.
Data set [27] is filed under the species Rattus norvegicus. The data set is described as follows: Anorectic activity in acute food intake rat model assessed as increase in energy expenditure. The data set is classed as functional, organism-based.
The test system of data set [28] is Mus musculus. The data set is described as follows: Inhibition of CP-55940-induced analgesia in ICR mouse at 1 mg/kg, sc administered 15 mins before CP-55940 challenge measured after 45 mins by hot plate method. In kind it is functional, organism-based. On the set-up: dose 1 mg/kg. (In hot-plate and tail-flick tests a longer latency is read as antinociception.)

In data set [29] the test system is Rattus norvegicus. The data set is described as follows: Toxicity in po dosed rat after 4 days. In kind it is organism-based. The settings on record: in vivo, 96 h.

pKi: −log10 of the molar value. The source made the active and inactive calls.

Cannabinoid receptor 2, sequence (P34972 whole entry): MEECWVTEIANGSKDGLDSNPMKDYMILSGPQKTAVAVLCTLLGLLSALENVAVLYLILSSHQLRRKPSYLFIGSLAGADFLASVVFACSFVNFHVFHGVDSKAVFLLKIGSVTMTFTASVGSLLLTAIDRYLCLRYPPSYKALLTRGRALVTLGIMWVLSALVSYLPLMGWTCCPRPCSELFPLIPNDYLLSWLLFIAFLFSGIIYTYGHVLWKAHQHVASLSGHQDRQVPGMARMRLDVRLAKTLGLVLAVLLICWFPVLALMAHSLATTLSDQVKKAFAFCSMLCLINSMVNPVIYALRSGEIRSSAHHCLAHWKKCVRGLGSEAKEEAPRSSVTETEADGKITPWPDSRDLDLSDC
T1 sequence (P21554 whole entry): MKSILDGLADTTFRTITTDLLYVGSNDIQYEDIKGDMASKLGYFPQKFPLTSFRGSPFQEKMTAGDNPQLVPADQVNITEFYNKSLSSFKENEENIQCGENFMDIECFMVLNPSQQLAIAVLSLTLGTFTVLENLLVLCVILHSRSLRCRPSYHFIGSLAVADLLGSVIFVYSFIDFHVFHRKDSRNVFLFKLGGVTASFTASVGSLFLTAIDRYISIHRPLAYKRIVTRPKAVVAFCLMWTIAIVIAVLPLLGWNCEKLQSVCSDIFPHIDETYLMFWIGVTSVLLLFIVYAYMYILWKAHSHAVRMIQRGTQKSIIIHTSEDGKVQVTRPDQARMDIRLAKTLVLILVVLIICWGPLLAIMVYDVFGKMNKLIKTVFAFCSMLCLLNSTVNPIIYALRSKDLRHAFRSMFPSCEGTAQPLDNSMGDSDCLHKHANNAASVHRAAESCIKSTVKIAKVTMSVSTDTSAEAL

Consider `CCC(F)(F)CN1CCOc2c(nn(-c3ccccc3Cl)c2-c2ccc(Cl)cc2)C1=O`, for which the pKi in [1] was 9.15; in data set [2], less than 5.00; in data set [3] it was 8.85.

As for `COC(C)(C)CN1CCc2c(nn(-c3ccccc3Cl)c2-c2ccc(Cl)cc2)C1=O`, the negative-log Ki (pKi) in [2] was 6.79.

For the compound `CCN1CCc2c(nn(-c3ccccc3Cl)c2-c2ccc(Cl)cc2)C1=O`, the negative-log Ki (pKi) is 7.60 in data set [1], 4.63 in data set [2] and 8.33 in data set [3].

Regarding `Cc1nc2c(-c3ccc(Cl)cc3)n(-c3ccccc3Cl)nc2c(=O)n1CC(F)(F)F`, the Activity result in [4] is given as “Toxic”. In data set [2], the pKi is less than 5.00.

For the compound `CC(F)(F)CN1CCc2c(nn(-c3ccccc3Cl)c2-c2ccc(Cl)cc2)C1`, in data set [3], the pKi was 7.52.

As to `Cc1c(C(=O)NN2CCCCC2)nn(-c2ccc(Cl)cc2Cl)c1-c1ccc(Cl)cc1` [RIMONABANT], the Activity came to 43% in data set [5], 21% in [6] and 5.2% in data set [7].

`O=C1c2nn(-c3ccccc3Cl)c(-c3ccc(Cl)cc3)c2CCN1CC(F)(F)F`: the negative-log Ki (pKi) is 8.51 in data set [1], less than 5.00 in data set [2] and 8.77 in data set [3].

In turn, `O=C1c2nn(-c3ccccc3Cl)c(-c3ccc(Cl)cc3)c2CCN1C1CCCC1` showed a pKi in [3] of 7.62.

As for `CC(F)(F)CN1CCOc2c(nn(-c3ccccc3Cl)c2-c2ccc(Cl)cc2)C1=O`, the result in data set [8], in data set [9], in data set [11] and in [17] was Active. Further, the Activity in data set [10] was determined as 40%; in data set [14], 5.9%; in [16] it was 23%. The bioavailability was 51% in data set [12] and 42% in data set [15]. The Vd in [13] worked out at 2.6 L/kg.

Consider `CC(C)CN1CCc2c(nn(-c3ccccc3Cl)c2-c2ccc(Cl)cc2)C1=O`, for which the pKi in [1] was 8.01; in data set [2], 5.75; in data set [3], 8.60.

In the case of `CC(C)(C)N1CCc2c(nn(-c3ccccc3Cl)c2-c2ccc(Cl)cc2)C1=O`, the pKi in data set [1] is 7.96; in [2] it was 5.17; in data set [3] it was 8.33.

On to `CC(F)(F)CN1CCc2c(nn(-c3ccccc3Cl)c2-c2ccc(Cl)cc2)C1=O`, for which the solubility in data set [18] is on record as 0.2 ugA/ml; in [22], 18.5 ugA/ml. The result in data set [19], in [23], in data set [24], in data set [26], in data set [27] and in [28] was Active. Besides, the figures for the bioavailability in data set [20] and in data set [15] were 50% and 99%, respectively. The Activity entry is “Dose-dependent effect” in data set [21], “Non-toxic” in data set [4] and “Non-toxic” in data set [29]. Also, the Vd in data set [13] was 2.6 L/kg. Besides, in data set [25], the half-life was 3.6 h. Further, the pKi in data set [2] is less than 5.00.

Regarding `O=C1c2nn(-c3ccccc3Cl)c(-c3ccc(Cl)cc3)c2OCCN1CC(F)(F)F`, the pKi in data set [1] is 8.82; in data set [2] it was less than 5.00; in data set [3], 8.72.

In the case of `CC(C)N1CCOc2c(nn(-c3ccccc3Cl)c2-c2ccc(Cl)cc2)C1=O`, the pKi was 8.32 in data set [1], less than 5.00 in data set [2] and 8.89 in [3].

Regarding `CC(C)N1CCc2c(nn(-c3ccccc3Cl)c2-c2ccc(Cl)cc2)C1=O`, the pKi in data set [1] is 8.26; in [2], less than 5.00; in [3], 8.60.
